# Test results: US7666885B2, “Enzyme inhibitors” (Consejo Superior de Investigaciones Cientificas, priority 2000, dated 2010)
# Target: T1, GSK-3β (Homo sapiens, UniProt P49841)
# T1 construct: purchased Sigma
# Experiment: GSK-3β inhibition (radiometric, GS 1 peptide)
# Type: biochemical
# Settings: GSK-3 enzyme (Sigma), 15 μM ATP, GS 1 peptide; Tables 3, 3a, 4; read-out: IC50
# Method: GSK-3β inhibition: The GSK-3 activity was determined by incubation of a mixture of GSK-3 enzyme (Sigma), a phosphate source and a GSK-3 substrate in the presence and in the absence of the corresponding test compound, and by measuring the GSK-3 activity of this mixture.
# The reaction is quenched by addition of an aliquot of the reaction mixture in phosphocelullose p81 papers. These papers are washed three times with phosphoric acid 1% and the radioactivity incorporated to the GS 1 peptide is measured in a liquid scintillation counter.
# T1 sequence (P49841 whole entry, species assumed): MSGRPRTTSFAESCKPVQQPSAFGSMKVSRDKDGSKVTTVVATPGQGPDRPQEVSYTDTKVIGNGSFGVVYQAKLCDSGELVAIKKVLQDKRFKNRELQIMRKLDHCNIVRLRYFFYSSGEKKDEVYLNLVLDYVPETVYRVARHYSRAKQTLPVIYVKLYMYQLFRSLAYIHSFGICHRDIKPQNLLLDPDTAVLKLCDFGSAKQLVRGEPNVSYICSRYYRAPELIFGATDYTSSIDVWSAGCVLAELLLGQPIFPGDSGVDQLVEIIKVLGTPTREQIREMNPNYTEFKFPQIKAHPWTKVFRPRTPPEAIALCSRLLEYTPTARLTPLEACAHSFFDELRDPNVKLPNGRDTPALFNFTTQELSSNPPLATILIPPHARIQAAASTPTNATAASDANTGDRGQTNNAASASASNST
row,Compound,IC50
1,"O=c1sn(-c2ccccc2)c(=S)n1-c1ccccc1 [Compound 12, 2,4-diphenyl-5-oxo-thiadiazolidine-3-thione]",20 µM
2,"CCOC(=O)Cn1c(=O)sn(C(C)C)c1=O [Compound 46, 4-(Ethoxycarbonylmethyl)-2-isopropyl-1,2,4-thiadiazolidine-3,5-dione]",7 µM
3,O=C1C=CC(=O)C1 [Compound 1-B],12 µM
4,O=C1NC(=O)c2ccccc21 [Compound 1-F],> 100 µM
5,"O=C(c1ccccc1)n1sc(=O)n(Cc2ccccc2)c1=O [Compound 31, 2-Benzoyl-4-benzyl-1,2,4-thiadiazolidine-3,5-dione]",3 µM
6,"CCn1sc(=O)n(CCc2ccccc2)c1=O [Compound 41, 2-Ethyl-4-phenethyl-1,2,4-thiadiazolidine-3,5-dione]",8 µM
7,"CCn1c(=O)sn(C)c1=O [Compound 2, 4-Ethyl-2-methyl-1,2,4-thiadiazolidine-3,5-dione]",5 µM
8,"O=C1CSC(=S)N1CCc1ccccc1 [Compound 5-G, 3-Phenethyl-2-thioxo-thiazolidin-4-One]",35 µM
9,"Cn1sc(=O)n(-c2ccc(F)cc2)c1=O [Compound 17, 4-(4-Fluorophenyl)-2-methyl-1,2,4-thiadiazolidine-3,5-dione]",4 µM
10,"3-(4-Ethyl-3-oxo-2-methyl-1,2,4-thiadiazolidin-5-ylidine)aminopyridine-1-oxide [Compound 23]",> 100 µM
11,"Cn1sc(=O)n(-c2ccc(Cl)cc2)c1=O [Compound 18, 4-(4-Chlorophenyl)-2-methyl-1,2,4-thiadiazolidine-3,5-dione]",4 µM
12,"CCn1sc(=O)n(CC)c1=O [Compound 13, 2,4-diethyl-5-oxo-1,2,4-thiadiazolidine-3,5-dione]",20 µM
13,"Cn1sc(=O)n(-c2ccccc2)c1=O [Compound 5, 4-Phenyl-2-methyl-1,2,4-thiadiazolidin-3,5-dione]",2 µM
14,"CCCn1sc(=O)n(CC)c1=O [Compound 3, 4-Ethyl-2-n-propyl-1,2,4-thiadiazolidine-3,5-dione]",10 µM
15,"CCn1sc(=O)n(Cc2ccccc2)c1=O [Compound 8, 4-Benzyl-2-ethyl-1,2,4-thiadiazolidine-3,5-dione]",7 µM
16,O=C1CCC(=O)C1 [Compound 1-A],> 100 µM
17,"Cn1sc(=O)n(-c2ccc(Br)cc2)c1=O [Compound 16, 4-(4-Bromophenyl)-2-methyl-1,2,4-thiadiazolidine-3,5-dione]",3 µM
18,"CCOC(=O)Cn1c(=O)sn(C(=O)c2ccccc2)c1=O [Compound 47, 2-Benzoyl-4-(ethoxycarbonylmethyl)-1,2,4-thiadiazolidine-3,5-dione]",4 µM
19,"CCn1sc(=NO)n(Cc2ccccc2)c1=O [Compound 36, 4-Benzyl-2-ethyl-1,2,4-thiadiazolidine-3-one-5-oxime]",6 µM
20,"CCn1sc(=O)n(-c2ccc([N+](=O)[O-])cc2)c1=O [Compound 49, 2-Ethyl-4-(4-nitrophenyl)-1,2,4-thiadiazolidine-3,5-dione]",8.5 µM
21,"3-[5-(4-Ethyl-2-methyl-3-oxo)imino-1,2,4-thiadiazolidyl]-1-methyl-pyridinium iodide [Compound 24]",> 100 µM
22,"Cc1ccc(-n2c(=O)sn(C)c2=O)cc1 [Compound 15, 4-(4-Methylphenyl)-2-methyl-1,2,4-thiadiazolidine-3,5-dione]",5 µM
23,"4-Ethyl-5-[imino-(1-methyl-piperidin-3-yl)]-2-methyl-1,2,4-thiadiazolidin-3-One [Compound 25]",> 100 µM
24,"CCOC(=O)Cn1sc(=O)n(CC(=O)OCC)c1=O [Compound 44, 4-(Ethoxycarbonylmethyl)-2-(ethoxycarbonylmethyl)-1,2,4-thiadiazolidine-3,5-dione]",4 µM
25,Cn1c(=O)n(-c2ccccc2)c(=O)n1C [Compound 2-H],> 100 µM

# More lines, now with the values ahead:
row,IC50,Compound
1,> 100 µM,O=C1c2ccccc2C(=O)N1Cc1ccccc1 [Compound 2-F]
2,6 µM,"CCn1sc(=O)n(Cc2ccccc2)c1=S [Compound 10, 4-Benzyl-2-ethyl-5-oxo-1,2,4-thiadiazolidine-3-thione]"
3,4 µM,"CCOC(=O)Cn1sc(=O)n(Cc2ccccc2)c1=O [Compound 33, 4-Benzyl-2-(Ethoxycarbonylmethyl)-1,2,4-thiadiazolidine-3,5-dione]"
4,> 100 µM,O=C1CCC(=O)N1Cc1ccccc1 [Compound 2-E]
5,2 µM,"CCOC(=O)Cn1c(=O)sn(C)c1=O [Compound 45, 4-(Ethoxycarbonylmethyl)-2-methyl-1,2,4-thiadiazolidine-3,5-dione]"
6,10 µM,"O=c1sn(Cc2ccccc2)c(=S)n1Cc1ccccc1 [Compound 11, 2,4-Dibenzyl-5-oxo-thiadiazolidine-3-thione]"
7,50 µM,"O=c1[nH]sc(=O)n1Cc1ccccc1 [Compound 42, 4-Benzyl-1,2,4-thiadiazolidine-3,5-dione]"
8,50 µM,"O=C(CN1C(=O)CSC1=S)c1ccccc1 [Compound 6-G, 3-Phenacyl-2-thioxo-thiazolidin-4-One]"
9,> 100 µM,"O=C(O)CN1C(=O)CSC1=S [Compound 3-G, (4-oxo-2-thioxo-thiazolidin-3-yl)-acetic acid]"
10,100 µM,"CCn1sc(=NO)n(-c2ccccc2)c1=O [Compound 50, 2-Ethyl-4-phenyl-1,2,4-thiadiazolidine-3-one-5-oxime]"
11,35 µM,"CCn1c(=O)sn(C(C)C)c1=O [Compound 9, 4-Ethyl-2-isopropyl-1,2,4-thiadiazolidin-3,5-dione]"
12,5 µM,"CCOC(=O)Cn1c(=O)sn(C)c1=O [Compound 6, 4-(Ethoxycarbonylmethyl)-2-methyl-1,2,4-thiadiazolidine-3,5-dione]"
13,10 µM,"CCn1c(=O)sn(C2CCCCC2)c1=O [Compound 4, 2-Cyclohexyl-4-ethyl-1,2,4-thiadiazolidine-3,5-dione]"

# Same assay, conditions: Tables 4a, 4b; read-out: GSK-3β IC50
row,IC50,Compound
1,> 100 µM,NN1C(=O)CSC1=S [Compound 7-G]
2,2.5 µM,"COc1ccc(CN2C(=O)C=CC2=O)cc1 [Compound 7-D, N-(p-methoxybenzyl)maleimide]"
3,2 µM,"O=C1C=CC(=O)N1CCc1ccccc1 [Compound 4-D, N-phenethylmaleimide]"

# System: N2A cells
# Experiment: Cell cycle blockade
# Type: cell-based, mice
# Settings: Mus musculus; N2A cell cultures, Table 5
# Method: In parallel, the potential interference of these compounds with the cell cycle was studied on N2A cells. The cell culture was maintained in a Dulbecco medium (DEMEM) with a 10% fethal bovine serum, glutamine (2 mM) and antibiotics.
# The first four compounds of general formula (I) gathered in Table 3 were assayed in the described conditions and shown ability to inhibit the cell cycle at an inhibitor concentration comprised between 100 nM and 1 μM. The cellular blockade was initially observed at concentrations comprised between 100-200 nM and was totally effective at 1 μM.
row,Compound,IC50
1,"CCn1c(=O)sn(C)c1=O [Compound 2, 4-Ethyl-2-methyl-1,2,4-thiadiazolidine-3,5-dione]",40 to 100 µM
2,"Cn1sc(=O)n(-c2ccccc2)c1=O [Compound 5, 4-Phenyl-2-methyl-1,2,4-thiadiazolidin-3,5-dione]",4 to 7 µM
3,"CCCn1sc(=O)n(CC)c1=O [Compound 3, 4-Ethyl-2-n-propyl-1,2,4-thiadiazolidine-3,5-dione]",5 to 10 µM
4,"CCn1sc(=O)n(Cc2ccccc2)c1=O [Compound 8, 4-Benzyl-2-ethyl-1,2,4-thiadiazolidine-3,5-dione]",4 to 7 µM
5,"Cn1sc(=O)n(Cc2ccccc2)c1=O [Compound 1, 4-Benzyl-2-methyl-1,2,4-thiadiazolidine-3,5-dione]",4 to 8 µM
6,"COc1ccc(-n2c(=O)sn(C)c2=O)cc1 [Compound 7, 4-(4-Methoxyphenyl)-2-methyl-1,2,4-thiadiazolidine-3,5-dione]",1 to 2 µM

# Continued, values first:
row,IC50,Compound
1,1 to 2 µM,"CCOC(=O)Cn1c(=O)sn(C)c1=O [Compound 6, 4-(Ethoxycarbonylmethyl)-2-methyl-1,2,4-thiadiazolidine-3,5-dione]"
2,6 to 9 µM,"CCn1c(=O)sn(C2CCCCC2)c1=O [Compound 4, 2-Cyclohexyl-4-ethyl-1,2,4-thiadiazolidine-3,5-dione]"

# Same assay, conditions: N2A cell cultures, Table 5
row,IC50,Compound
1,4 to 8 µM,"O=c1sn(-c2ccccc2)c(=S)n1-c1ccccc1 [Compound 12, 2,4-diphenyl-5-oxo-thiadiazolidine-3-thione]"
2,1 to 2 µM,"O=c1sn(Cc2ccccc2)c(=S)n1Cc1ccccc1 [Compound 11, 2,4-Dibenzyl-5-oxo-thiadiazolidine-3-thione]"

# System: not given
# Experiment: not given
# Settings: not given
row,melting point,Compound
1,49 to 51 °C,"O=C1C=CC(=O)N1CCCCCc1ccccc1 [Compound 6-D, N-(5-phenylpentyl)maleimide]"
2,79 to 81 °C,"COc1ccc(CCN2C(=O)C=CC2=O)cc1 [Compound 8-D, N-(p-Methoxyphenethyl)maleimide]"
3,79 to 80 °C,"O=C1C=CC(=O)N1CCCc1ccccc1 [Compound 5-D, N-(3-phenylpropyl)maleimide]"
